Biological target: T1, Cholesteryl ester transfer protein (Homo sapiens, UniProt P11597)
T1 sequence (P11597 whole entry): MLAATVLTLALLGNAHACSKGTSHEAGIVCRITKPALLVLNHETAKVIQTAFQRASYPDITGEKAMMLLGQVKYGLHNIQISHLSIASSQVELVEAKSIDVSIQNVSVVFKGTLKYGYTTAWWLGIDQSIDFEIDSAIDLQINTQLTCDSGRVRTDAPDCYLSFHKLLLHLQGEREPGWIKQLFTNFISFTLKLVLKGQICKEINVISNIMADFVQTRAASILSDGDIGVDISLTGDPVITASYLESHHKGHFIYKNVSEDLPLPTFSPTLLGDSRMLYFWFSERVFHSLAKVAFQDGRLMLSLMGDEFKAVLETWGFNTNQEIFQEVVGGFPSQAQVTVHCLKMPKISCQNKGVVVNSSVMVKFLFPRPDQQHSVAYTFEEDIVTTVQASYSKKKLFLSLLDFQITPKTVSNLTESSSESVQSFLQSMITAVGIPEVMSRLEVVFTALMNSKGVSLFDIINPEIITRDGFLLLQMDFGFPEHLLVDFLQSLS
Test: Scintillation Proximity Assay (SPA): First, low density lipoprotein (LDL) (Meridian) was biotinylated by incubating LDL with biotin for 1 hour on ice, after which it was dialyzed to remove free biotin. Then compounds at varying concentrations were incubated with 15 nM CETP (reagent production group, In Vitro Pharmacology, MRL Rahway) and 50 ug/ml of the biotinylated LDL in 50 mM HEPES, 150 mM NaCl, pH 7.4, for 1 hour at 37° C. The reaction was started by adding 3H-cholesterol ester high density lipoprotein (HDL) (American Radiochemicals Corp) at a concentration of ~0.6 nM. The reaction proceeded for 2 hours at 37° C., after which time it was quenched by the addition of 12% acetic acid. PVT streptavadin-coated scintillation proximity beads, which had been brought to room temperature, were then added at a concentration of 4 mg/ml. The assay was then mixed and counted after one half hour in a Microbeta plate reader.

## N#Cc1cccc(-c2ccc(C(F)(F)F)cc2[C@@H]2CC[C@H]3[C@@H](c4cc(C(F)(F)F)cc(C(F)(F)F)c4)OC(=O)N23)c1
  IC50: 177 nM
